“And” between values parts separate entries of the source, which are not always exact repeats. Equal values may be shown once.
Test system: THP-1 viability, CellTiter-Glo luminescence, 72 h
Assay: PubChem AID 2252

Structure (SMILES)	EC50
CO[C@H]1C=CO[C@@]2(C)Oc3c(C)c(O)c4c(O)c(c5c(c4c3C2=O)NC2(CCN(CC(C)C)CC2)N=5)=NC(=O)C(C)=CC=C[C@H](C)[C@H](O)[C@@H](C)[C@@H](O)[C@@H](C)[C@H](OC(C)=O)[C@@H]1C	26 µM
CN(C)CCCN1c2ccccc2CCc2ccc(Cl)cc21	18.4 µM
Cc1ccc(C(=O)N/C(=C\c2ccc(-c3ccc(Br)cc3)o2)C(=O)NCCCN(C)C)cc1	4.18 µM
CN1CCN(C2=Cc3ccccc3Sc3cc(F)c(Cl)cc32)CC1	18.2 µM
COc1cccc(/C=N\NC(=O)Cn2nnc3ccccc32)c1O	14.6 µM
COc1cccc(F)c1C(C[N+](=O)[O-])c1c(N)n(C)c(=O)n(C)c1=O (centres undefined)	6.05 µM
c1ccc(Sc2cccc3ccccc23)c(CNC2=NCCN2)c1	5.87 µM
NC1=NC[C@H](Cc2ccc(O)cc2)N1CCCCC1CCCCC1	1.73 µM
OCCN1CCN(C2CCC(c3ccc(F)cc3)c3ccc(F)cc32)CC1 (centres undefined)	9.55 µM
O=[N+]([O-])c1ccc(O)c(/C=N/Nc2ccccn2)c1	0.42 µM
CN1CC(C(=O)c2ccc(Cl)cc2)C(c2ccc(Cl)cc2Cl)C1 (centres undefined)	27.5 µM
CCCCCCCCNC(C)C(O)c1ccc(SC(C)C)cc1 (centres undefined)	3.57 µM
O=C(CN1CC[n+]2c(-c3cccs3)csc21)c1ccc(-c2ccccc2)cc1	13 µM
CC(Nc1nc(N2CCCC2)nc2ccccc12)c1ccccc1 (centres undefined)	9.31 µM
CN(C)CC/C=C1\c2ccccc2Sc2ccc(Cl)cc21	17 µM
C#CCOCCOCCOCCNc1nc(N2CCN(C(=O)CCCCCCCCCCNC(=O)[C@H](CO)n3cc(CCCSC)nn3)CC2)nc(N2CCN(C(=O)CCCCCCCCCCNC(=O)[C@H](CCCN=C(N)N)n3cc(C[C@@H](C)CC)nn3)CC2)n1	9.01 µM
N#C/C(N=Nc1ccccc1O)=N\Nc1ccccc1O	4.42 µM
Oc1ccccc1Nc1nc(NCc2ccco2)c2ccccc2n1	12.6 µM
O=C(Nc1cccc(C2=NCCN2)c1)Nc1cccc(C2=NCCN2)c1	13.2 µM
CN1CCN(c2ccccc2NC(=O)c2sc3ccccc3c2Cl)CC1	24.9 µM
Cc1nn(Cc2ccccc2Cl)c2sc(C(=O)Nc3ccccc3N3CCOCC3)cc12	20.4 µM
Cc1cc([N+](=O)[O-])nn1CC(=O)N/N=C/c1ccccc1O	6.62 µM
CCOc1cccc(CNCCc2c(C)[nH]c3ccc(OC(F)(F)F)cc23)c1O	3.51 µM

Structure (SMILES)	EC50
COc1ccc(C2NCCc3c2[nH]c2ccccc32)cc1COc1ccc(F)cc1 (centres undefined)	6.94 µM
c1ccc2c(c1)nc(N1CCOCC1)c1c3ccccc3[nH]c21	< 0.1 µM
N=c1n(CCN2CCCCC2)c2ccccc2n1CC(O)COc1ccccc1 (centres undefined)	28.7 µM
O=C(/C=C/c1cc(Br)ccc1O)c1ccco1	8.79 µM
CC(C)(c1ccccc1)c1ccc(OCCCN2CCNCC2)cc1	15.3 µM
COc1ccc(C(=O)NC(=S)NNC(=O)CCc2ccccc2)cc1	6.09 µM
CN(C)CCCN1c2ccccc2Sc2ccc(Cl)cc21	5.64 µM and 12.4 µM
CN(C)CCNC(=O)c1ccc(COc2ccc(Cl)cc2Cl)cc1	13.8 µM
O=C(Oc1c(Cl)cc(Cl)c2cccnc12)c1cccc([N+](=O)[O-])c1	14.6 µM
Cc1cc(C)c(OCCCCNCc2ccccc2)c(Cl)c1	12.2 µM
Fc1ccc([C@@H]2CCNC[C@H]2COc2ccc3c(c2)OCO3)cc1	7.59 µM
CC1CCCC(NC(=O)COC(=O)CCSc2ccccc2)C1C (centres undefined)	< 0.1 µM
O=C(Nc1nc(-c2ccccn2)cs1)c1ccc(Cl)s1	0.84 µM
CCN(CC)CCNc1nc(-c2ccc(OC)cc2)c(-c2ccc(OC)cc2)s1	22.3 µM
CCCCCCCCC1=NCCc2c1[nH]c1ccccc21	15 µM
CNCCCN1c2ccccc2CCc2ccccc21	40.4 µM
Oc1ccc(COCc2ccccc2)c2cccnc12	1.24 µM
CNCCCCOc1ccc(C(C)(C)C)cc1Cl	21.8 µM
NC1=NC[C@H](Cc2ccc(O)cc2)N1CCc1cccc2ccccc12	32.7 µM
CN(C)CCCN1c2ccccc2Sc2ccccc21	32.6 µM
OC(c1cc(C(F)(F)F)nc2c(C(F)(F)F)cccc12)C1CCCCN1 (centres undefined)	7.61 µM
COc1ccc(CNC(=O)CCC(=O)N2C[C@H]3C[C@H](C2)c2cccc(=O)n2C3)cc1	< 0.1 µM
CCOc1cc(CNC(C)(C)CO)cc(Br)c1OCc1ccc(Cl)cc1Cl	5.53 µM

Structure (SMILES)	EC50
C#CCOCCOCCOCCNc1nc(N2CCN(C(=O)CCCCCCCCCCNC(=O)[C@@H](CCSC)n3cc(CCO)nn3)CC2)nc(N2CCN(C(=O)CCCCCCCCCCNC(=O)[C@H]([C@@H](C)CC)n3cc(CCCCCN)nn3)CC2)n1	12.9 µM
OCCCCNCc1ccc(OCc2ccc(Cl)cc2Cl)cc1	9.8 µM
c1ccc2c(c1)CCN(c1nc3ccccc3n3cnnc13)C2	24.8 µM
CCOc1ccc(N2C(=O)CN(O)C=C3N=c4ccccc4=C32)cc1	39.3 µM
CCCCCCCCn1ccc(=N)cc1	5.47 µM
C/C(=N\NC(=O)c1ccccc1O)c1cccs1	22.7 µM
Cc1cc([N+](=O)[O-])cc(/C=N/n2c(C)nc3ccccc3c2=O)c1O	28.2 µM
COc1cccc(Nc2nc(NCCO)c3ccccc3n2)c1	2.26 µM
O=C(/C=C/c1ccc(F)cc1)NC(=S)NNC(=O)c1cnccn1	6.17 µM
Cc1c(CCOC(=O)C2C3CC4CC(C3)CC2C4)sc[n+]1CC(=O)c1ccc(Br)cc1 (centres undefined)	6.34 µM
CCCCCNc1nc(N2CCCC2)c2c(c1C#N)CCN(C)C2	23.3 µM
O=C(Nc1nnc(-c2ccco2)o1)c1cccc(Cl)c1	21.1 µM
CC(=O)NC(=S)NNC(=O)c1ccc(Br)cc1	27.6 µM
NC1=NC[C@@H](Cc2ccc(O)cc2)N1CCc1cc(C(F)(F)F)cc(C(F)(F)F)c1	32.3 µM
O=C(Nc1ccc([N+](=O)[O-])cc1Cl)c1cc(Cl)ccc1O	1.93 µM
Nn1cnnc1N/N=C\c1ccc(-c2ccccc2[N+](=O)[O-])o1	41.3 µM
Cc1[nH]c2ccccc2c1/C=C/c1nc2ccccc2c(=O)[nH]1	14 µM
COc1ccc(N=CC2=C(Nc3ccc(OC)cc3)c3c(C)nn(-c4ccccn4)c3CC2)cc1	2.16 µM
Oc1[nH]c2ccc(Br)cc2c1N=NC(=S)N1CCOCC1	1.82 µM
Cc1ccc(N=Cc2cc(Br)cc(Cl)c2O)cc1	49.5 µM
COc1ccc(Nc2nc(NCC3CCCO3)c3ccccc3n2)c(OC)c1 (centres undefined)	9.34 µM
O=C1C2=C(Nc3ccccc3SC2c2ccco2)c2ccccc21 (centres undefined)	23.6 µM
OCCNc1nc(Nc2ccc(Br)cc2)nc2ccccc12	0.62 µM

Structure (SMILES)	EC50
Cc1ccc(C(c2cc(Cl)c3cccnc3c2O)N2CCN(C)CC2)cc1 (centres undefined)	4.95 µM
Cc1ccc(NC(=O)CS(=O)CC(=O)Nc2ccccc2-c2ccc(C)o2)cc1 (centres undefined)	21.6 µM
Nc1nonc1C(=O)NCCN=Cc1cc(Cc2ccccc2)cc(Br)c1O	28 µM
Cc1cc(=O)[nH]c(-n2nc(C)cc2C)n1	27.8 µM
CN1CCN(CCCN2c3ccccc3Sc3ccc(Cl)cc32)CC1	14.7 µM and 10.2 µM
Cc1ccccc1C(=O)Nc1cccc(C(=O)N/N=C/c2cc(Cl)cc([N+](=O)[O-])c2O)c1	12.4 µM
CCN1c2ccccc2NC2N=C(OC)C(c3ccccc3)C21 (centres undefined)	16.1 µM
CCOC(=O)c1ccccc1-n1c(C)cc(C2N=C(N)Nc3nc4ccccc4n32)c1C (centres undefined)	6.21 µM
CC(C)(c1ccccc1)c1ccc(OCCCNCCO)cc1	16.6 µM
CCCOc1ccc(C(=O)NNC(=S)NC(=O)c2ccco2)cc1	16.8 µM
CN(C)c1ccc(Nc2nc(N)c3ccccc3n2)cc1	6 µM
CN1CCCN(C(c2ccccc2)c2ccc(Cl)cc2)CC1 (centres undefined)	8.99 µM
CN1CCN(C2Cc3ccc(Cl)cc3Sc3ccc(F)cc32)CC1 (centres undefined)	11.6 µM
O=C(N/N=C/c1ccc(O)c(O)c1)C1c2ccccc2Oc2ccccc21	42 µM
COc1cccc(/C=N/NC(=O)CNC(=O)COc2cccc(C)c2)c1O	9.52 µM
O=C(CCN1CCN(c2ccccc2F)CC1)c1ccc(Br)cc1	17 µM
COc1ccc(C(=O)Nc2cc3c(cc2OC)CCCC3)cc1Br	< 0.1 µM
O=c1c2ccccc2nc(-c2cccc(Cl)c2)n1O	18.2 µM
CC(C)(C)c1nc(SCC(=O)NCc2ccco2)c2ccccc2n1	30 µM
O=C(C[n+]1cccc(CNC(=O)c2ccc(OC(F)F)cc2)c1)Nc1ccc(SC(F)F)cc1	7.22 µM
CCCSc1nc2cc(OC)c(OC)cc2c(=N)n1CCCN1CCOCC1	45.2 µM
Nc1nc(=S)c2[nH]cnc2[nH]1	0.32 µM
CCN1CCN(CCNC(=O)c2ccc3c(c2)N(Cc2ccc(F)cc2)C(=O)/C(=C/c2ccccc2)S3)CC1	9.43 µM

Structure (SMILES)	EC50
O=S(=O)(Nc1c(S(=O)(=O)c2ccccc2)c2nc3ccccc3nc2n1C1CCCCC1)c1ccccc1	12.3 µM
Fc1ccc(Nc2nnc(C(F)(F)F)s2)cc1Cl	18.5 µM
C#CCOCCOCCOCCNc1nc(N2CCN(C(=O)CCCCCCCCCCNC(=O)[C@H]([C@@H](C)CC)n3cc(CCCCCN)nn3)CC2)nc(N2CCN(C(=O)CCCCCCCCCCNC(=O)[C@H]([C@@H](C)CC)n3cc(CCCCN=C(N)N)nn3)CC2)n1	5.17 µM
O=C(N/N=C/c1ccc([N+](=O)[O-])o1)C(O)c1ccccc1 (centres undefined)	17.9 µM
C/C(=N\NC(=O)c1ccc(CN2CCc3ccccc3C2)cc1)c1ccccc1O	7.89 µM
CCC(O)(CC)C(=O)N/N=C/c1cc(Br)cc(Br)c1O	15.4 µM
S=C(Nc1cc(Cl)cc(Cl)c1)NC1CCN(Cc2ccccc2)CC1	14.6 µM
N=c1c2c(n(Cc3cccc(Cl)c3)c3c1CCC3)CCCC2	13.5 µM
O=C(Cc1ccccc1)N/N=C/c1cc(Br)cc(Cl)c1O	3.7 µM
O=c1ccc2cc3c([nH]c4ccc(Br)cc43)oc-2c1O	18.9 µM
CCc1ccc2c(c1)Sc1ccccc1CC2N1CCN(C)CC1 (centres undefined)	11.8 µM
Clc1ccc(CONc2ncnc3nonc23)c(Cl)c1	47.7 µM
O=C(NC1CCCCC1)c1ccc([N+](=O)[O-])o1	9.5 µM
O=C(/C=C/c1cccs1)NC(=S)NNC(=O)c1ccccc1O	2.79 µM
CCCOc1ccc(C(=O)NNC(=S)NC(C)=O)cc1	5.29 µM
O=c1[nH]c(-c2ccccn2)nc(C(F)(F)F)c1Br	11.5 µM
O=C(N=Nc1c(O)[nH]c2ccccc12)c1cc(-c2cccs2)[nH]n1	< 0.1 µM
O=C(CN1CC(c2ccccc2)CC1=O)N/N=C/c1cc(Br)ccc1O (centres undefined)	3.85 µM
Cn1c(-c2ccc(Cl)cc2)cnc1N	33.8 µM
CN(C)CCCNc1c2ccccc2nc2ccccc12	3.46 µM
Cc1ccc(C(C[N+](=O)[O-])Sc2ccc(N)cc2)cc1 (centres undefined)	21.8 µM
Oc1ccc(N=Nc2ccc(Br)cc2)c(O)c1	17.8 µM
